For 29 compounds, GI50 and TGI results are on record in PubChem BioAssay (NCI).

Structures are written as SMILES.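 1) Cells in 96-well plates. 2) Compound, 48 h, 5 concentrations. 3) Linear interpolation between surrounding doses. 4) Unreached endpoint = highest concentration. GI50 marks 50% less growth. TGI denotes the concentration required for complete inhibition of growth.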

In one assay the test system is KM12 colon. Put plainly: NCI-60 cell line screen, 48 h.
In the case of `COc1cc(C(=O)O[C@H](C(=O)NCCCCCNC(=O)[C@@H](OC(=O)c2cc(OC)cc3c(C)cccc23)[C@]2(C)CO2)[C@]2(C)CO2)c2cccc(C)c2c1`, the GI50 is 0.5 µM and the TGI was 1.41 µM.
`CCOC(=O)N1CCN(C=S)CC1` had a TGI greater than 100 µM.
On the same count and under the same terms, to `CCc1cc(C(=O)OC)cn1C(=N)c1ccc(Cl)cc1` belongs greater than 100 µM; to `Cc1cc(=O)n(-c2ccccc2C)c(C)n1`, greater than 100 µM.
Take `Oc1c(C(Nc2cccc3cccnc23)c2ccccc2)ccc2cccnc12` (stereo unspecified): the TGI was greater than 100 µM.
On the same count and under the same terms, to `COc1ccc(Br)c(N/N=C2\CCCNC2=O)c1` belongs greater than 100 µM.
Turning to `COc1cc2c(c(OC)c1OC)-c1ccc(SC)c(=O)cc1C(CO)C2` (stereo unspecified), the GI50 was less than 0.01 µM and the TGI was determined as 0.079 µM.
Taken in the same sequence, the figures for `COc1cc([N+](=O)[O-])c(OC)cc1-c1nc2sc(Cl)cn2c1/C(N)=N/C(=N)N` were 2.75 µM and 9.16 µM.
In turn, `Cc1ccc2nc(NC(=O)C(=O)C(C#N)c3nc4ccccc4s3)sc2c1` (stereo unspecified) yielded a TGI greater than 100 µM.
Same read-out and setting: the value for `CC(C)C1CC[C@@H](C)C[C@@]1(O)CC(N)=O` (stereo partly specified) was greater than 100 µM.
Consider `COc1cnc2c(c1)C(=O)c1c-2n(CCCn2ccnc2)c(=O)c2cc(F)ccc12`, for which the GI50 was 0.0589 µM and the TGI came out at 1.57 µM.
In the same order, the values of `CN(CCCn1c2c(c3ccccc3c1=O)C(=O)c1ccccc1-2)CCCn1c2c(c3ccccc3c1=O)C(=O)c1ccccc1-2` are 0.15 µM and 1.05 µM.
Taken in the same sequence, the figures for `CCC[CH2][Sn]1([CH2]CCC)[O]C(=O)c2cccnc2[O]1` were 4.6 µM and 17.6 µM.
Consider `COC1CC(OS(=O)(=O)c2ccc([N+](=O)[O-])cc2)C(OC(=O)c2ccccc2)C(C)O1` (stereo unspecified), for which the TGI was greater than 100 µM.
With `C=C1C(=O)O[C@H]2[C@H]1CC/C(COC(=O)NCc1cn(C)c3ccccc13)=C\CC[C@@]1(C)O[C@@H]21`, the GI50 was 2.88 µM and the TGI was determined as 7.67 µM.
For `CCS(CC)(CC)CC1CCCC2=CCC(P(=O)(c3ccccc3)c3ccccc3)CC21` (stereo unspecified), the TGI stood at 30.6 µM.
The same measure, in the same setting: the value for `COc1ccc2n[se]nc2c1` was greater than 100 µM; that for `Cn1cc(C(=O)NCCC(=N)N)cc1NC(=O)C1=[N+](C)C=C(NC(=O)c2cccc(C(=O)NC3=CC(C(=O)Nc4cc(C(=O)NCCC(=N)N)cn4C)=[N+](C)C3)c2)C1` was greater than 100 µM.

A further assay relates to LOX IMVI melanoma. Kind of assay: NCI-60 cell line screen, 48 h.
Compound `CCN(CC)c1c(C(=O)/C=C/c2ccc(OC)cc2)c(-c2ccccc2)nn(C)c1=O` had a TGI of 44.9 µM.
The same measure, in the same setting: the value for `CN1C(=Nc2ccccc2)SC1=Nc1ccccc1` was greater than 100 µM; that for `Oc1ccccc1/C=C/c1csnn1` was 99.1 µM.
Same read-out and setting: the value for `CC(=O)CC(=O)OC1CC(C)CCC1C(C)C` (stereo unspecified) was greater than 100 µM.
The same measure, in the same setting: to `CP1(=O)CCCCC1` belongs greater than 100 µM; to `Cc1ccc(S(=O)(=O)OC2CSS(=O)CC2OS(=O)(=O)c2ccc(C)cc2)cc1` (stereo unspecified), 26.1 µM; to `O=[N+]([O-])c1cc(C(F)(F)F)cc([N+](=O)[O-])c1CCl`, 0.274 µM.
`Nc1ccnc(=O)[nH]1` registered a TGI greater than 100 µM.
Consider `COC(=O)/C(C)=C(/CCC1(C)OCCO1)O[Si](C)(C)C`, for which the TGI is greater than 100 µM.
As to `COc1cc(C(=O)O[C@H](C(=O)NCCCCCNC(=O)[C@@H](OC(=O)c2cc(OC)cc3c(C)cccc23)[C@]2(C)CO2)[C@]2(C)CO2)c2cccc(C)c2c1`, the GI50 was less than 0.01 µM and the TGI is less than 0.0138 µM.
Compound `CCOC(=O)N1CCN(C=S)CC1` yielded a TGI greater than 100 µM.
As to `CCc1cc(C(=O)OC)cn1C(=N)c1ccc(Cl)cc1`, the TGI is greater than 100 µM.
The compound `Cc1cc(=O)n(-c2ccccc2C)c(C)n1` showed a TGI greater than 100 µM.
The same measure, in the same setting: to `Oc1c(C(Nc2cccc3cccnc23)c2ccccc2)ccc2cccnc12` (stereo unspecified) belongs greater than 100 µM.
As to `COc1ccc(Br)c(N/N=C2\CCCNC2=O)c1`, the TGI was greater than 100 µM.
`COc1cc2c(c(OC)c1OC)-c1ccc(SC)c(=O)cc1C(CO)C2` (stereo unspecified): the GI50 was less than 0.01 µM and the TGI stood at 19.8 µM.
As to `COc1cc([N+](=O)[O-])c(OC)cc1-c1nc2sc(Cl)cn2c1/C(N)=N/C(=N)N`, the GI50 was 4.44 µM and the TGI is greater than 100 µM.
`Cc1ccc2nc(NC(=O)C(=O)C(C#N)c3nc4ccccc4s3)sc2c1` (stereo unspecified) had a TGI greater than 100 µM.
For `COc1cnc2c(c1)C(=O)c1c-2n(CCCn2ccnc2)c(=O)c2cc(F)ccc12`, the GI50 is less than 0.01 µM and the TGI came out at 0.128 µM.
In the same order, the values of `O=C([CH-]C(=O)c1ccccc1)c1ccccc1.O=C([CH-]C(=O)c1ccccc1)c1ccccc1.[La+3].[OH-].[OH3+]` are 13.5 µM and 37.1 µM.
Taken in the same sequence, the figures for `CCC[CH2][Sn]1([CH2]CCC)[O]C(=O)c2cccnc2[O]1` were 1.81 µM and 3.51 µM.
`COC1CC(OS(=O)(=O)c2ccc([N+](=O)[O-])cc2)C(OC(=O)c2ccccc2)C(C)O1` (stereo unspecified): the TGI was greater than 100 µM.
In the case of `CCOc1ccccc1N1C(=O)C(=O)C(c2nc3ccccc3o2)C(=O)C1=O`, the TGI was greater than 100 µM.
As for `C=C1C(=O)O[C@H]2[C@H]1CC/C(COC(=O)NCc1cn(C)c3ccccc13)=C\CC[C@@]1(C)O[C@@H]21`, the GI50 was 0.594 µM and the TGI was found to be 1.99 µM.
For `CCS(CC)(CC)CC1CCCC2=CCC(P(=O)(c3ccccc3)c3ccccc3)CC21` (stereo unspecified), the TGI was determined as 34.9 µM.
On the same count and under the same terms, to `COc1ccc2n[se]nc2c1` belongs greater than 100 µM; to `Cn1cc(C(=O)NCCC(=N)N)cc1NC(=O)C1=[N+](C)C=C(NC(=O)c2cccc(C(=O)NC3=CC(C(=O)Nc4cc(C(=O)NCCC(=N)N)cn4C)=[N+](C)C3)c2)C1`, greater than 100 µM.

Another assay deals with MCF7 breast. Put plainly: NCI-60 cell line screen, 48 h.
As to `COc1cc(C(=O)O[C@H](C(=O)NCCCCCNC(=O)[C@@H](OC(=O)c2cc(OC)cc3c(C)cccc23)[C@]2(C)CO2)[C@]2(C)CO2)c2cccc(C)c2c1`, the GI50 was less than 0.0123 µM.

In another assay the test system is PC-3 prostate. Kind of assay: NCI-60 cell line screen, 48 h.
Turning to `COc1cc(C(=O)O[C@H](C(=O)NCCCCCNC(=O)[C@@H](OC(=O)c2cc(OC)cc3c(C)cccc23)[C@]2(C)CO2)[C@]2(C)CO2)c2cccc(C)c2c1`, the GI50 was 0.997 µM and the TGI is greater than 41.1 µM.
In the same order, the values of `COc1cc([N+](=O)[O-])c(OC)cc1-c1nc2sc(Cl)cn2c1/C(N)=N/C(=N)N` are 3.22 µM and 13 µM.
Taken in the same sequence, the figures for `COc1cnc2c(c1)C(=O)c1c-2n(CCCn2ccnc2)c(=O)c2cc(F)ccc12` were 0.0576 µM and greater than 100 µM.
